From ChEMBL document CHEMBL1201862, “PubChem BioAssay data set” (2004)
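Growth conditions: 96-well plates. Treatment: test compound, 48 hours, 5 concentrations. Analysis: linear interpolation between bracketing concentrations; unreached endpoints set to highest concentration. GI50 marks 50% less growth.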 Calls of active or inactive are those of the source. Rule as the data show it: active = GI50 up to about 1.1 µM and inactive = higher.

Key:
Assay in all cases: DTP human tumour cell line panel, 48 h
[1] = system: BT-549
[2] = system: DU-145
[3] = system: EKVX
[4] = system: HCT-15
[5] = system: HL-60
[6] = system: HOP-62
[7] = system: Hs-578T
[8] = system: KM12
[9] = system: LOX IMVI
[10] = system: MDA-MB-435
[11] = system: Malme-3M
[12] = system: NCI-H226
[13] = system: NCI-H460
[14] = system: NCI-H522
[15] = system: PC-3
[16] = system: RXF 393
[17] = system: SF-268
[18] = system: SF-539
[19] = system: SK-OV-3
[20] = system: SNB-19

Row | SMILES | GI50 [1] | GI50 [2] | GI50 [3] | GI50 [4] | GI50 [5] | GI50 [6] | GI50 [7] | GI50 [8] | GI50 [9] | GI50 [10] | GI50 [11] | GI50 [12] | GI50 [13] | GI50 [14] | GI50 [15] | GI50 [16] | GI50 [17] | GI50 [18] | GI50 [19] | GI50 [20]
1 | Cc1cn(C2CC(N=[N+]=[N-])C(CO)O2)c(=O)n(CCCCO)c1=O (stereo not given) | > 100 µM (inactive) | > 100 µM (inactive) | > 100 µM (inactive) | > 100 µM | > 100 µM (inactive) | > 100 µM (inactive) | > 100 µM (inactive) | > 100 µM (inactive) | > 100 µM (inactive) | > 100 µM (inactive) | > 100 µM (inactive) | > 100 µM (inactive) | > 100 µM (inactive) | > 100 µM (inactive) | > 100 µM (inactive) | > 100 µM (inactive) | > 100 µM (inactive) | > 100 µM (inactive) | > 100 µM (inactive) | > 100 µM (inactive)
2 | N#CCC(=O)N/N=C(\CCN1CCCC1)CC(c1ccccc1)c1c(O)c2ccccc2oc1=O (stereo not given) | 47.5 µM (inactive) | > 100 µM (inactive) | > 100 µM (inactive) | > 67.5 µM | 24.5 µM (inactive) | > 100 µM (inactive) | 63.7 µM (inactive) | > 63.7 µM (inactive) | > 41.3 µM (inactive) | 57 µM (inactive) | 60 µM (inactive) | > 89.5 µM (inactive) | > 100 µM (inactive) | 70.6 µM (inactive) | 64.7 µM (inactive) | > 100 µM (inactive) | > 100 µM (inactive) | > 88.5 µM (inactive) | > 86.9 µM (inactive) | > 100 µM (inactive)
3 | COc1ccc(/C=C/C(=O)/C=C/c2ccc(OC)cc2OC)c(OC)c1 | 4.34 µM (inactive) | 12.4 µM (inactive) | 9.08 µM (inactive) | 3.75 µM | 3.13 µM (inactive) | 44.5 µM (inactive) | 26.3 µM (inactive) | 33.8 µM (inactive) | 3.63 µM (inactive) | 2.41 µM (inactive) | 4.19 µM (inactive) | 12.9 µM (inactive) | 5.08 µM (inactive) | 2.41 µM (inactive) | 12.2 µM (inactive) | 3.24 µM (inactive) | 4.55 µM (inactive) | 15.8 µM (inactive) | 7.35 µM (inactive) | 12.6 µM (inactive)
4 | COc1cc2c(cc1OCCCCCCCCCCN1C(=O)c3cccc4cccc(c34)C1=O)N=C[C@@H]1CCCN1C2=O | 6.25 µM (inactive) | 13.2 µM (inactive) | 2.11 µM (inactive) | 4.8 µM | 4.27 µM (inactive) | 14.3 µM (inactive) | 6.89 µM (inactive) | 16.1 µM (inactive) | 2.14 µM (inactive) | 4.25 µM (inactive) | 12 µM (inactive) | 1.72 µM (inactive) | 19.9 µM (inactive) | 6.67 µM (inactive) | 3.13 µM (inactive) | 3.85 µM (inactive) | 8.51 µM (inactive) | 1.55 µM (inactive) | 6.68 µM (inactive) | 13.7 µM (inactive)
